For data set [1], the system named is Mus musculus. As to the kind of experiment: Toxicity in db/db mouse assessed as weight gain at 0.3 mg/kg, po after 7 days. In kind it is organism-based. The arrangement: dose 0.3 mg/kg, route oral. Conditions: in vivo, 168 h.
For data set [2], the system named is Mus musculus. Nature of the data set: Antihyperglycemic effect in db/db mouse assessed as inhibition of blood glucose at 3 mg/kg, po after 5 days. In kind it is functional. Conditions: 120 h.
For data set [3], the system named is Mus musculus. As to the kind of experiment: Antihyperglycemic effect in db/db mouse assessed as inhibition of blood glucose at 3 mg/kg, po after 4 days. In kind it is functional. Conditions: 96 h.
In data set [4] the test system is Mus musculus. Nature of the data set: Toxicity in db/db mouse assessed as weight gain at 3 mg/kg, po after 4 days. Also on record: dose 3 mg/kg, route oral. In kind it is organism-based. The following applies: in vivo, 96 h.
Data set [5] concerns the target T1, Peroxisome proliferator-activated receptor alpha (Homo sapiens, UniProt Q07869).
T1 sequence (Q07869 whole entry): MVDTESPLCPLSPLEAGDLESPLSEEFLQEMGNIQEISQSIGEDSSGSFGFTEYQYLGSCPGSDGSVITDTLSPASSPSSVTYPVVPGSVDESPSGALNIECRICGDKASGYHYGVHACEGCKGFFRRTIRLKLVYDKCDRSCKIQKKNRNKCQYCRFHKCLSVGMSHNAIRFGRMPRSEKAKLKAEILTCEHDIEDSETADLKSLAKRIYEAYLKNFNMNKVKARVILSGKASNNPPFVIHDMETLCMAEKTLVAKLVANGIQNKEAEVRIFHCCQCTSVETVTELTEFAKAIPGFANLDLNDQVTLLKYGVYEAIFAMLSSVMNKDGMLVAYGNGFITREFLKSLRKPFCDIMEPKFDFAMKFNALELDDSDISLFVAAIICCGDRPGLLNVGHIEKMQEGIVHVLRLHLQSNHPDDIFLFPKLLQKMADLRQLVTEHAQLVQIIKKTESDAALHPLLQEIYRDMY
Nature of the data set: Agonist activity at human PPARalpha ligand binding domain expressed in african green monkey CV1 cells co-transfected with fused Gal4-DBD by transactivation assay. It counts as cell-based, CV-1.

For data set [6], the target named is T2, Peroxisome proliferator-activated receptor alpha (Homo sapiens) (UniProt Q07869).
T2 sequence (whole entry): T1 sequence (Q07869 whole entry)
As to the kind of experiment: Agonist activity at human PPARalpha ligand binding domain expressed in african green monkey CV1 cells co-transfected with fused Gal4-DBD by transactivation assay relative to gemfibrozil. In kind it is cell-based. The following applies: CV-1.

The subject of data set [7] is Mus musculus. As to the kind of experiment: Antihyperglycemic effect in db/db mouse assessed as inhibition of blood glucose at 0.3 mg/kg, po after 7 days. Conditions: 168 h. It counts as functional.
In data set [8] the test system is Mus musculus. Nature of the data set: Antihyperglycemic effect in db/db mouse assessed as inhibition of blood glucose at 0.3 mg/kg, po after 11 days. In kind it is functional. Conditions: 264 h.
The subject of data set [9] is Mus musculus. Nature of the data set: Antihyperglycemic effect in db/db mouse assessed as inhibition of blood glucose at 0.3 mg/kg, po after 4 days. In kind it is functional. Conditions: 96 h.
Data set [10] relates to Mus musculus. As to the kind of experiment: Antihyperglycemic effect in db/db mouse assessed as inhibition of blood glucose at 3 mg/kg, po after 11 days. In kind it is functional. The following applies: 264 h.
The target in data set [11] is T3, Peroxisome proliferator-activated receptor gamma (Homo sapiens, UniProt P37231).
T3 sequence (P37231 whole entry): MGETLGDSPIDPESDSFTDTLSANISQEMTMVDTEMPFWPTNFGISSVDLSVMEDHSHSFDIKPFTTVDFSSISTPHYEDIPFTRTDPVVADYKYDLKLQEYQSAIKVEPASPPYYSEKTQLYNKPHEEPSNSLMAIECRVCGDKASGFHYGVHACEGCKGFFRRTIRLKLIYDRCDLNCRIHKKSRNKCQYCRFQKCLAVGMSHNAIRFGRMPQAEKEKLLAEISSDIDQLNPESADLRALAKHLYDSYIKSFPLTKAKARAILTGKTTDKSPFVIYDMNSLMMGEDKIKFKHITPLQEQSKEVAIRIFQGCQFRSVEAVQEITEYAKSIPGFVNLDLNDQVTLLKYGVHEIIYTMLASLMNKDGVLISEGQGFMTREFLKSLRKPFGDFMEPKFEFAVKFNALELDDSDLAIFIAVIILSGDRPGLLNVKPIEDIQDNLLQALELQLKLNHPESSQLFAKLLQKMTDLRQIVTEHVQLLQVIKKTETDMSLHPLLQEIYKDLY
Description: Agonist activity at human PPARgamma ligand binding domain expressed in african green monkey CV1 cells co-transfected with fused Gal4-DBD by transactivation assay

The subject of data set [12] is Mus musculus. As to the kind of experiment: Toxicity in db/db mouse assessed as weight gain at 3 mg/kg, po after 7 days. In kind it is organism-based. Conditions: in vivo, 168 h. The arrangement: dose 3 mg/kg, route oral.
For data set [13], the system named is Mus musculus. As to the kind of experiment: Toxicity in db/db mouse assessed as weight gain at 0.3 mg/kg, po after 11 days. Conditions: in vivo, 264 h. The arrangement: dose 0.3 mg/kg, route oral. In kind it is organism-based.
The test system of data set [14] is Mus musculus. Nature of the data set: Antihyperglycemic effect in db/db mouse assessed as inhibition of blood glucose at 0.3 mg/kg, po after 5 days. In kind it is functional. The following applies: 120 h.
In data set [15] the test system is Mus musculus. As to the kind of experiment: Toxicity in db/db mouse assessed as weight gain at 0.3 mg/kg, po after 4 days. It counts as organism-based. Also on record: dose 0.3 mg/kg, route oral. The following applies: in vivo, 96 h.
Data set [16] relates to Mus musculus. As to the kind of experiment: Toxicity in db/db mouse assessed as weight gain at 3 mg/kg, po after 11 days. In kind it is organism-based. Also on record: dose 3 mg/kg, route oral. The following applies: in vivo, 264 h.
The subject of data set [17] is Mus musculus. Nature of the data set: Antihyperglycemic effect in db/db mouse assessed as inhibition of blood glucose at 3 mg/kg, po after 7 days. In kind it is functional. The following applies: 168 h.
Another data set concerns CV-1. As to the kind of experiment: Ratio of EC50 for human PPARalpha ligand binding domain expressed in african green monkey CV1 cells to EC50 for human PPARgamma ligand binding domain expressed in african green monkey CV1 cells. It counts as cell-based.

What is called inhibition in vivo is the change of the read-out against control, counted positive when it falls. Broadly, the EC50 is the concentration that produces a half-maximal response. For `CCO[C@@H](Cc1cccc(/C(C)=N/OCc2ccc(F)cc2)c1)C(=O)O`, the Activity worked out at 3.6 g in the data set on Mus musculus [1]; 2.1 g in the data set on Mus musculus [4]; 3.6 g with Mus musculus [12]; 5.6 g with Mus musculus [13]; 1.9 g in the data set on Mus musculus [15]; 5.6 g in the data set on Mus musculus [16]. For the same compound, the inhibition in vivo at 3 mg/kg in the data set on Mus musculus [2] came to 61%; in the data set with Mus musculus [3], 64%; in the data set on Mus musculus [10], 71%; in the data set with Mus musculus [17], 73%. Moreover, the EC50 is 5.9 µM in data set [5] and 0.139 µM in data set [11]. The compound further yielded an Emax in data set [6] of 299%. Besides, the inhibition in vivo at 0.3 mg/kg worked out at 58% in the data set with Mus musculus [7], 68% in the data set on Mus musculus [8], 39% with Mus musculus [9] and 40.7% with Mus musculus [14].

On to `CCO[C@@H](Cc1cccc(/C(C)=N/OCc2ccc(Cl)cc2)c1)C(=O)O`, for which the Activity amounted to 3.7 g with Mus musculus [1]; 2.5 g in the data set on Mus musculus [4]; 3.7 g in the data set with Mus musculus [12]; 6 g with Mus musculus [13]; 1.9 g in the data set on Mus musculus [15]; 5.3 g in the data set on Mus musculus [16]. The Ratio EC50 in the data set with CV-1 was determined as 260. Further, the inhibition in vivo at 3 mg/kg turned out to be 60.1% in the data set with Mus musculus [2], 61% with Mus musculus [3], 76% in the data set on Mus musculus [10] and 73% with Mus musculus [17]. For the same compound, the figures for the EC50 in data set [5] and in data set [11] were 7.22 µM and 0.028 µM, respectively. In data set [6], this compound returned an Emax of 386%. The inhibition in vivo at 0.3 mg/kg was determined as 60% in the data set on Mus musculus [7], 71% in the data set on Mus musculus [8], 63% in the data set with Mus musculus [9] and 19.3% in the data set with Mus musculus [14].

(Values after ChEMBL document CHEMBL1140178, “Design, synthesis, and biological evaluation of novel constrained meta-substituted phenyl propanoic acids as peroxisome proliferator-activated receptor alpha and gamma dual agonists” (J Med Chem, 2008).)
